Reference: US20240293392A1, “INHIBITOR COMPOUNDS” (NeoPhore Limited, priority 2021, published 2024)

Tests used:
[1] = target: T1, recombinant N-terminal PMS2 (residues 1-365) (Homo sapiens, UniProt P54278); assay: Fluorescence Polarisation Assay for PMS2; format: binding; conditions: fluorescence polarisation probe displacement; 10 nM N-terminal PMS2, 5 nM probe compound; read-out: PMS2 IC50
T1 construct: recombinant N-terminal PMS2 (residues 1-365)
T1 sequence (P54278 1-365): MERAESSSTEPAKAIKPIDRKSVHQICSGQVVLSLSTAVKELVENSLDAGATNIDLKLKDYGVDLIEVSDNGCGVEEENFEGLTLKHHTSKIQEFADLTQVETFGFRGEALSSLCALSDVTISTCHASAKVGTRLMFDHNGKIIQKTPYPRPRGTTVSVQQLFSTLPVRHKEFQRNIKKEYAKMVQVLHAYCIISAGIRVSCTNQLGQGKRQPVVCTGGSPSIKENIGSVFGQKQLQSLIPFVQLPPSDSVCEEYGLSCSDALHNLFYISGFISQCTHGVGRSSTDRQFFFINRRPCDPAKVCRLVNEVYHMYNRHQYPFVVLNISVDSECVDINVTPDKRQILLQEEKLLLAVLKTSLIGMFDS
Procedure, shortened: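 Competition fluorescence polarisation with 10 nM N-terminal PMS2 and 5 nM fluorescent probe (final), read after 1 h at room temperature following 30 min compound pre-incubation. Data normalised to no-inhibitor and no-enzyme controls; single-point screening or serial dilutions for potency.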

[2] = target: T2, recombinant N-terminal MLH1 (residues 15-340) (Homo sapiens, UniProt P40692); assay: Fluorescence Polarisation Assay for MLH1; format: binding; conditions: fluorescence polarisation probe displacement; 100 nM N-terminal MLH1, 5 nM probe compound
T2 construct: recombinant N-terminal MLH1 (residues 15-340)
T2 sequence (P40692 15-340): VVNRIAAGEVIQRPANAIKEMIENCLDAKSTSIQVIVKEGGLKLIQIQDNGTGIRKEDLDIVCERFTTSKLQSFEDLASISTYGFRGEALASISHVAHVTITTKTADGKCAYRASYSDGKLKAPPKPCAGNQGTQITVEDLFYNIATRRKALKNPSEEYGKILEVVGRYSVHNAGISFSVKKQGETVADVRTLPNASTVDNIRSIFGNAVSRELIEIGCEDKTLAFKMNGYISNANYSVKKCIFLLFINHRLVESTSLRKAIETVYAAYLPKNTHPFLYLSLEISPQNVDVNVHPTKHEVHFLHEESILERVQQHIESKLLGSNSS
Procedure, shortened: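 FP displacement assay: 100 nM MLH1 (residues 15-340) preincubated 30 min at room temperature with compound in 25 mM HEPES pH 7.5, 250 mM NaCl, 10 mM MgCl2, 0.01% Triton X-100, 5 mM DTT, then 5 nM rhodamine-labelled probe added and read immediately. Data normalised to no-inhibitor and no-enzyme controls.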

Compound `O=C(c1c(O)cc(O)cc1OCc1ccccc1)N1Cc2cccc(NC3CCCOC3)c2C1` (stereo not drawn) [Example 14, (2-(Benzyloxy)-4,6-dihydroxyphenyl)(4-((tetrahydro-2H-pyran-3-yl)amino)isoindolin-2-yl)methanone] has an IC50 [1] of 1000 to 10000 nM and an IC50 [2] of under 1000 nM.
In the case of `COc1ccc(COc2cc(O)cc(O)c2C(=O)N2Cc3cccc(NC4CCOC4)c3C2)cc1` (stereo not drawn) [Example 39, (2,4-Dihydroxy-6-((4-methoxybenzyl)oxy)phenyl)(4-((tetrahydrofuran-3-yl)amino)isoindolin-2-yl)methanone], the IC50 [1] is reported as 1000 to 10000 nM and the IC50 [2] is reported as under 1000 nM.
With `O=C(c1c(O)cc(O)cc1OCc1ccccc1)N1CCc2cccc(NC3COC3)c2C1` [Example 41, (2-(Benzyloxy)-4,6-dihydroxyphenyl)(8-(oxetan-3-ylamino)-3,4-dihydroisoquinolin-2(1H)-yl)methanone] the IC50 [1] was 1000 to 10000 nM and the IC50 [2] was under 1000 nM.
Work on `CC(=O)N1CC[C@@H](Nc2cccc3c2CN(C(=O)c2c(O)cc(O)cc2OCc2ccccc2)CC3)C1` [Example 66, (R)-1-(3-((2-(2-(Benzyloxy)-4,6-dihydroxybenzoyl)-1,2,3,4-tetrahydroisoquinolin-8-yl)amino)pyrrolidin-1-yl)ethan-1-one] yielded an IC50 [1] of over 10000 nM and an IC50 [2] of under 1000 nM.
For `CN(C)Cc1ccc2c(c1)CN(C(=O)c1c(O)cc(O)cc1OCc1ccccc1)C2` [Example 11, (2-(Benzyloxy)-4,6-dihydroxyphenyl)(5-((dimethylamino)methyl)isoindolin-2-yl)methanone], the IC50 [1] was 1000 to 10000 nM and the IC50 [2] was 1000 to 10000 nM.
In the case of `CNC(=O)c1ccc2c(c1)CN(C(=O)c1c(O)cc(O)cc1OCc1ccccc1)C2` [Example 86, 2-(2-(Benzyloxy)-4,6-dihydroxybenzoyl)-N-methylisoindoline-5-carboxamide], the IC50 [1] is reported as under 1000 nM and the IC50 [2] is reported as under 1000 nM.
`O=C(c1c(O)cc(O)cc1OCc1ccccc1)N1Cc2cccc(NC3CCOC3)c2C1` (stereo not drawn) [Example 6, (2-(Benzyloxy)-4,6-dihydroxyphenyl)(4-((tetrahydrofuran-3-yl)amino)isoindolin-2-yl)methanone] was tested, and the IC50 [1] was 1000 to 10000 nM and the IC50 [2] was under 1000 nM.
Work on `O=C(c1c(O)cc(O)cc1OCc1ccccc1)N1Cc2cccc(CNC3CCOC3)c2C1` (stereo not drawn) [Example 80, (2-(Benzyloxy)-4,6-dihydroxyphenyl)(4-(((tetrahydrofuran-3-yl)amino)methyl)isoindolin-2-yl)methanone] yielded an IC50 [1] of 1000 to 10000 nM and an IC50 [2] of 1000 to 10000 nM.
For `O=C(c1c(O)cc(O)cc1OCc1ccccc1)N1Cc2ccccc2C(O)C1` (single isomer, unassigned) [Example 51, (2-Benzyloxy-4,6-dihydroxy-phenyl)-(4-hydroxy-3,4-dihydro-1H-isoquinolin-2-yl)methanone], the IC50 [1] was over 10000 nM and the IC50 [2] was 1000 to 10000 nM.
`O=C(c1c(O)cc(O)cc1OCc1ccccc1)N1Cc2cccc(CNC3COC3)c2C1` [Example 81, (2-(Benzyloxy)-4,6-dihydroxyphenyl)(4-((oxetan-3-ylamino)methyl)isoindolin-2-yl)methanone] was tested, and the IC50 [1] was 1000 to 10000 nM and the IC50 [2] was 1000 to 10000 nM.
With `CN(C)C(=O)c1cc2c(c(N[C@H]3CCOC3)c1)CN(C(=O)c1c(O)cc(O)cc1OCc1ccccc1)CC2` [Example 130, (S)-2-(2-(Benzyloxy)-4,6-dihydroxybenzoyl)-N,N-dimethyl-8-((tetrahydrofuran-3-yl)amino)-1,2,3,4-tetrahydroisoquinoline-6-carboxamide] the IC50 [1] was under 1000 nM and the IC50 [2] was under 1000 nM.
`CN1C[C@H](Nc2cccc3c2CN(C(=O)c2c(O)cc(O)cc2OCc2ccccn2)CC3)CC1=O` [Example 59, (R)-4-((2-(2,4-dihydroxy-6-(pyridin-2-ylmethoxy)benzoyl)-1,2,3,4-tetrahydroisoquinolin-8-yl)amino)-1-methylpyrrolidin-2-one] was tested, and the IC50 [1] was 1000 to 10000 nM and the IC50 [2] was under 1000 nM.
`O=C(c1c(O)cc(O)cc1OCC1CCCCC1)N1CCc2cccc(N[C@H]3CCOC3)c2C1` [Example 140, (S)-(2-(Cyclohexylmethoxy)-4,6-dihydroxyphenyl)(8-((tetrahydrofuran-3-yl)amino)-3,4-dihydroisoquinolin-2(1H)-yl)methanone] was tested, and the IC50 [1] was under 1000 nM and the IC50 [2] was 1000 to 10000 nM.
`COC1COCC1Nc1cccc2c1CN(C(=O)c1c(O)cc(O)cc1OCc1ccccc1)CC2` (stereo not drawn) [Example 148, (2-(Benzyloxy)-4,6-dihydroxyphenyl)(8-((4-methoxytetrahydrofuran-3-yl)amino)-3,4-dihydroisoquinolin-2(1H)-yl)methanone] showed an IC50 [1] of over 10000 nM and an IC50 [2] of 1000 to 10000 nM.
Work on `CC(=O)N1CCC(Nc2cccc3c2CN(C(=O)c2c(O)cc(O)cc2OCc2ccccc2)C3)C1` (stereo not drawn) [Example 36, 1-(3-((2-(2-(Benzyloxy)-4,6-dihydroxybenzoyl)isoindolin-4-yl)amino)pyrrolidin-1-yl)ethan-1-one] yielded an IC50 [1] of 1000 to 10000 nM and an IC50 [2] of under 1000 nM.
`CN1CC(Nc2cccc3c2CN(C(=O)c2c(O)cc(O)cc2OCc2ccccc2)CC3)CCC1=O` (stereo not drawn) [Example 70, 5-((2-(2-(Benzyloxy)-4,6-dihydroxybenzoyl)-1,2,3,4-tetrahydroisoquinolin-8-yl)amino)-1-methylpiperidin-2-one] gave an IC50 [1] of over 10000 nM and an IC50 [2] of under 1000 nM.
`CNc1cccc2c1CN(C(=O)c1c(O)cc(O)cc1OCc1ccccc1)CC2` [Example 43, (2-(Benzyloxy)-4,6-dihydroxyphenyl)(8-(methylamino)-3,4-dihydroisoquinolin-2(1H)-yl)methanone] showed an IC50 [1] of 1000 to 10000 nM and an IC50 [2] of under 1000 nM.
`CC12CC(Nc3cccc4c3CN(C(=O)c3c(O)cc(O)cc3OCc3ccccc3)C4)(CO1)C2` [Example 52, (2-(Benzyloxy)-4,6-dihydroxyphenyl)(4-((1-methyl-2-oxabicyclo[2.1.1]hexan-4-yl)amino)isoindolin-2-yl)methanone] showed an IC50 [1] of 1000 to 10000 nM and an IC50 [2] of under 1000 nM.
Work on `CC(C)(C)OC(=O)NCCCCCN1CCN(Cc2ccc3c(c2)CN(C(=O)c2c(O)cc(O)cc2OCc2ccccc2)C3)CC1` [Example 103, t-Butyl (5-(4-((2-(2-(benzyloxy)-4,6-dihydroxybenzoyl)isoindolin-5-yl)methyl)piperazin-1-yl)pentyl)carbamate] yielded an IC50 [1] of under 1000 nM and an IC50 [2] of under 1000 nM.
For `NC(=O)c1cccc(Nc2cccc3c2CN(C(=O)c2c(O)cc(O)cc2OCc2ccccc2)CC3)c1` [Example 74, 3-((2-(2-(Benzyloxy)-4,6-dihydroxybenzoyl)-1,2,3,4-tetrahydroisoquinolin-8-yl)amino)benzamide], the IC50 [1] was over 10000 nM and the IC50 [2] was over 10000 nM.
With `CC(=O)N1CCC[C@@H](Nc2cccc3c2CN(C(=O)c2c(O)cc(O)cc2OCc2ccccc2)CC3)C1` [Example 68, (R)-1-(3-((2-(2-(benzyloxy)-4,6-dihydroxybenzoyl)-1,2,3,4-tetrahydroisoquinolin-8-yl)amino)piperidin-1-yl)ethan-1-one] the IC50 [1] was over 10000 nM and the IC50 [2] was under 1000 nM.
`O=C(c1c(O)cc(O)cc1OCc1ccccc1)N1Cc2cccc(N3CCCC(O)C3)c2C1` (stereo not drawn) [Example 8, (2-(Benzyloxy)-4,6-dihydroxyphenyl)(4-(3-hydroxypiperidin-1-yl)isoindolin-2-yl)methanone] was tested, and the IC50 [1] was 1000 to 10000 nM and the IC50 [2] was 1000 to 10000 nM.
`CN(C)Cc1ccc2c(c1)CCN(C(=O)c1c(O)cc(O)cc1OCc1ccccc1)C2` [Example 46, (2-Benzyloxy-4,6-dihydroxy-phenyl)-[6-[(dimethylamino)methyl]-3,4-dihydro-1H-isoquinolin-2-yl]methanone] showed an IC50 [1] of 1000 to 10000 nM and an IC50 [2] of 1000 to 10000 nM.
In the case of `CN(C)Cc1ccc2c(c1)CN(C(=O)c1c(O)cc(O)cc1OCc1ccccc1)CC2` [Example 47, (2-Benzyloxy-4,6-dihydroxy-phenyl)-[7-[(dimethylamino)methyl]-3,4-dihydro-1H-isoquinolin-2-yl]methanone], the IC50 [1] is reported as 1000 to 10000 nM and the IC50 [2] is reported as 1000 to 10000 nM.
`CC(=O)N1CC(Nc2cccc3c2CN(C(=O)c2c(O)cc(O)cc2OCc2ccccc2)CC3)C1` [Example 146, 1-(3-((2-(2-(Benzyloxy)-4,6-dihydroxybenzoyl)-1,2,3,4-tetrahydroisoquinolin-8-yl)amino)azetidin-1-yl)ethan-1-one] gave an IC50 [1] of 1000 to 10000 nM and an IC50 [2] of under 1000 nM.
For `O=C(c1c(O)cc(O)cc1OCc1ccccc1)N1Cc2cccc(NC3CCCOC3)c2C1` (single isomer, unassigned) [Example 30, (2-(Benzyloxy)-4,6-dihydroxyphenyl)(4-((tetrahydro-2H-pyran-3-yl)amino)isoindolin-2-yl)methanone], the IC50 [1] was 1000 to 10000 nM and the IC50 [2] was under 1000 nM.
Compound `CN1CCN(Cc2cccc3c2CN(C(=O)c2c(O)cc(O)cc2OCc2ccccc2)C3)CC1` [Example 9, (2-(Benzyloxy)-4,6-dihydroxyphenyl)(4-((4-methylpiperazin-1-yl)methyl)isoindolin-2-yl)methanone] has an IC50 [1] of 1000 to 10000 nM and an IC50 [2] of 1000 to 10000 nM.
